These results are taken from US9126976B2 (Merck Sharp & Dohme Corp., priority 2011, dated 2015).

Usually IC50 stands for the concentration at which inhibition is half-maximal.

Sequence of endogenous CETP from serum (P11597 18-493 limits assumed): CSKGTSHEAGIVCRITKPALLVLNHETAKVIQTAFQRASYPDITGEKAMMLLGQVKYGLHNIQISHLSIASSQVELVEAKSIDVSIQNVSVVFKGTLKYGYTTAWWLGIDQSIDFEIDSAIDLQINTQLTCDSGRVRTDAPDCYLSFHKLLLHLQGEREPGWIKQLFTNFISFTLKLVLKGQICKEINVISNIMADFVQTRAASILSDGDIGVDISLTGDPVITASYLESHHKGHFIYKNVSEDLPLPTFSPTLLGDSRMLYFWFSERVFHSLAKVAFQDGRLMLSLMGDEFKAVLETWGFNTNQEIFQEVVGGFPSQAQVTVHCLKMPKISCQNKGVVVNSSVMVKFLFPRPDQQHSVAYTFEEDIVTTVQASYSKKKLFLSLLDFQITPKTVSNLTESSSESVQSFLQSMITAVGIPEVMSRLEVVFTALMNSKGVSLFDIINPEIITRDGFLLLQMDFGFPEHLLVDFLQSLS

One data set deals with endogenous CETP from serum (Homo sapiens (Human), UniProt P11597). The data set can be described thus: RTA assay using endogenous CETP from serum (95% human serum). The format is biochemical. The note with it: RTA in 95% human serum, Table 2. Here is the method:
(§1) In Vitro Radioactive Assays of CETP-Catalyzed CE and TG Transfer (RTA Assay)
(§2) Reagents and sources are: [3H] cholesteryl oleate (GE #TRK.886), [3H] Triolein (Perkin-Elmer NET-431), Butylated hydroxyl toluene (Aldrich, #D4740-4), DOPC (Sigma, # P6354), Sodium Bromide (Fisher scientific #S255-500), PEG 8000 (Fisher, #BP233-1), and human HDL (Intracel Corp #RP-036).
(§3) An in vitro assay for determining IC50's to identify compounds that inhibit CETP transfer activity is performed based on a modification of a published method (Morton and Zilversmit, (1981) A plasma inhibitor of triglyceride and cholesteryl ester transfer activities, J. Biol. Chem. 256(23), 11992-11995). The ability of inhibitors to alter CETP activity is performed using two different assays: one using recombinant CETP and one using an endogenous plasma source of CETP. Both assays measure the transfer of [3H] cholesteryl oleate or [3H] triolein from exogenous LDL to HDL.
(§4) Radiolabeled donor particles are generated by first combining 100 μl of 200 μM butylated hydroxyl toluene in CHCl3, 216 μL of 21.57 mM DOPC in EtOH, and either 500 μCi [3H]-triolein (Perkin Elmer #NET-431) or 500 μCi [3H]-cholesteryl oleate (GE #TRK886) in a glass tube. Reagents are mixed, dried under nitrogen, and then resuspended in 2 mL of 50 mM Tris, 27 μM EDTA at pH 7.4. After a brief vortex, the solution is sonicated until clear and mixed with 20 mL of fresh human serum. The mixture is incubated overnight at 37° C. The [3H] labeled LDL substrate is separated at 1.063 g/ml density by sequential ultracentrifugal flotation in NaBr according to the method by (Havel, Eder et al. 1955; Chapman, Goldstein et al. 1981). Once isolated the particles are dialyzed 3× in CETP buffer (50 mM Tris, pH 7.4, 100 mM NaCl, 1 mM EDTA). Human HDL is purchased from Intracel and used as the acceptor particles.
Transfer assays are performed in a 96-well v-bottom polypropylene plate. For the RTA using recombinant CETP (2% RTA), an assay cocktail is prepared with the final concentrations 128 μg/mL HDL, 20 nM rCETP, 2% human serum, and 1×CETP buffer. 1 μL of each test compound diluted in DMSO is added to 47 μL of assay cocktail per well and incubated at 37° C. for 1 hour. To initiate the transfer reaction, 2 μL radiolabeled LDL is added. After an additional 60 min of incubation at 37° C., the transfer action is terminated by precipitation of LDL with an equal volume of 20% W/V PEG 8000. The plates are centrifuged at 2000 rpm for 30 minutes at 4° C. A 40 μL aliquot of the HDL-containing supernatant is transferred to a Packard Optiplate™ with 200 μL of MicroScint™ 20. After mixing, plates are counted by liquid scintillation. […]
The molecule `CC(C)(O)c1ccc(C2CN(Cc3cccc(OC(F)(F)F)c3)c3ccccc3N2C[C@@H](O)C(F)(F)F)cc1` (some centres unmarked) [Example 59] displayed an IC50 of 0.024 µM. The same measure, in the same setting: as for `O[C@H](CN1c2ccc(F)cc2N(Cc2cccc(OC(F)(F)F)c2)CC1c1cccc(OC(F)F)c1)C(F)(F)F` (some centres unmarked) [Example 58], the figure is 0.016 µM; as for `O[C@H](CN1c2ccccc2N(Cc2cccc(OC(F)(F)F)c2)CC1c1cccc(OC(F)F)c1)C(F)(F)F` (some centres unmarked) [Example 61], 0.0075 µM; as for `O[C@H](CN1c2ccccc2N(Cc2cccc(OC(F)F)c2)CC1c1cccc(OC(F)F)c1)C(F)(F)F` (some centres unmarked) [Example 60], 0.014 µM.

A further data set has as its target T1, CETP (Homo sapiens (Human), UniProt P11597). The experiment in a line: Scintillation Proximity Assay (SPA) for CETP activity. The format is biochemical. The note with it: Table 1, read-out: IC50. The procedure:
Protocol: Scintillation Proximity Assay (SPA) for CETP Activity
First, low density lipoprotein (LDL) (Meridian) was biotinylated by incubating LDL with biotin for 1 hour on ice, after which it was dialyzed to remove free biotin. Then compounds at varying concentrations were incubated with 15 nM CETP (reagent production group, In Vitro Pharmacology, MRL Rahway) and 50 ug/ml of the biotinylated LDL in 50 mM HEPES, 150 mM NaCl, pH 7.4, for 1 hour at 37° C. The reaction was started by adding 3H-cholesterol ester high density lipoprotein (HDL) (American Radiochemicals Corp) at a concentration of ˜0.6 nM. The reaction proceeded for 2 hours at 37° C., after which time it was quenched by the addition of 12% acetic acid. PVT streptavadin-coated scintillation proximity beads, which had been brought to room temperature, were then added at a concentration of 4 mg/ml. The assay was then mixed and counted after one half hour in a Microbeta plate reader.
Target sequence in this assay (P11597 18-493): as the sequence (P11597 18-493 limits assumed) above
With `O[C@H](CN1c2ccccc2N(C2C=Cc3ccccc32)CC1c1cccc(OC(F)(F)C(F)F)c1)C(F)(F)F` (stereo partly drawn) [Example 56, (2R)-3(4-(1H-inden-1-yl))-2-(3-(1,1,2,2,- tetrafluoroethoxy)phenyl)-3,4-dihydroquinoxalin-1(2H)-yl-1,1,1-trifluoropropan-2-ol], the IC50 came to 0.011 µM.

Turning to `O[C@H](CN1c2ccccc2N(C2CCCc3ccccc32)CC1c1cccc(C(F)(F)F)c1)C(F)(F)F` (stereo partly drawn) [Example 57, (2R)-1,1,1-trifluoro-3(4-(1,2,3,4-tetrahydronaphthalen-1-yl)-2-(3-trifluoromethyl)phenyl)-3,4-dihydroquinoxalin-1(2H)-yl-propan-2-ol], the IC50 amounted to 0.012 µM.

Still in this data set, the particulars now being: read-out: SPA IC50.
With `COC(=O)c1cccc([C@@H]2CN(Cc3cccc(OC(F)(F)F)c3)c3ccccc3N2C[C@@H](O)C(F)(F)F)c1` [Example 16], the IC50 was found to be 0.027 µM. Same read-out and setting: as for `O[C@H](CN1c2ccccc2N(Cc2cccc(OC(F)(F)F)c2)C[C@H]1c1cc(C(F)(F)F)cc(C(F)(F)F)c1)C(F)(F)F` [Example 25], the figure is 0.77 µM; as for `C[C@H](c1cccc(C(F)(F)F)c1)N1C[C@@H](c2cccc(C(F)(F)F)c2)N(C[C@@H](O)C(F)(F)F)c2ccccc21` [Example 13, (R)-1,1,1-trifluoro-3-((R)-2-(3-(trifluoromethyl)phenyl-4-((R)-1-(3-trifluoromethyl)phenyl)ethyl)-3,4-dihydroquinoxalin-1(2H)-yl)propan-2-ol], 0.01 µM.

Take `O[C@H](CN1c2ccccc2N(Cc2cccc(OC(F)(F)F)c2)C[C@H]1c1cccc(OC(F)(F)F)c1)C(F)(F)F` [Example 21]: the IC50 stood at 0.019 µM. Same read-out and setting: as for `N#Cc1cccc([C@@H]2CN(Cc3cccc(OC(F)(F)F)c3)c3ccccc3N2C[C@@H](O)C(F)(F)F)c1` [Example 24], the figure is 0.098 µM. On the same count and under the same terms, as for `C[C@H](c1ccccc1)N1C[C@@H](c2cccc(C(F)(F)F)c2)N(C[C@@H](O)C(F)(F)F)c2ccccc21` [Example 15], the figure is 0.014 µM.

System in another data set: not given
Test: not given
The note with it: patients treated with anacetrapib; cited from earlier work.
As for `COc1cc(F)c(C(C)C)cc1-c1ccc(C(F)(F)F)cc1CN1C(=O)O[C@H](c2cc(C(F)(F)F)cc(C(F)(F)F)c2)[C@@H]1C` [anacetrapib], the increase in mortality result was “unlikely”.

Still in this data set, the particulars now being: patients, with baseline statin therapy, compared with just a statin; cited from earlier work.
For the molecule `COc1cc(F)c(C(C)C)cc1-c1ccc(C(F)(F)F)cc1CN1C(=O)O[C@H](c2cc(C(F)(F)F)cc(C(F)(F)F)c2)[C@@H]1C` [anacetrapib], the “decrease of LDL-C” value is recorded as 40% and the “increase of HDL-C” value is given as 138%.

System in a further data set: not given
Test: not given
The note with it: torcetrapib and atorvastatin concomitantly compared with atorvastatin alone; cited from earlier work.
Consider `CCOC(=O)N1c2ccc(C(F)(F)F)cc2[C@@H](N(Cc2cc(C(F)(F)F)cc(C(F)(F)F)c2)C(=O)OC)C[C@H]1CC` [torcetrapib], for which the mortality entry was “higher incidence of mortality”.

In the next data set the target is T1, CETP. The data set can be described thus: RTA assay, CETP-catalyzed CE and TG transfer, recombinant CETP (2% human serum).
Settings: not given
It is filed as biochemical. The procedure:
as §1, §2, §3, §4
Transfer assays are performed in a 96-well v-bottom polypropylene plate. For the RTA using recombinant CETP (2% RTA), an assay cocktail is prepared with the final concentrations 128 μg/mL HDL, 20 nM rCETP, 2% human serum, and 1×CETP buffer. 1 μL of each test compound diluted in DMSO is added to 47 μL of assay cocktail per well and incubated at 37° C. for 1 hour. To initiate the transfer reaction, 2 μL radiolabeled LDL is added. After an additional 60 min of incubation at 37° C., the transfer action is terminated by precipitation of LDL with an equal volume of 20% W/V PEG 8000. The plates are centrifuged at 2000 rpm for 30 minutes at 4° C. A 40 μL aliquot of the HDL-containing supernatant is transferred to a Packard Optiplate™ with 200 μL of MicroScint™ 20. After mixing, plates are counted by liquid scintillation. Counts present in the supernatant for blanks (wells containing only HDL acceptor, CETP buffer and DMSO) are subtracted from those containing test compounds and used to correct for non-specific transfer.
Comparison of the counts of samples with inhibitors to an uninhibited (DMSO only) positive control yield a percent inhibition. A plot of percent inhibition vs. log of inhibitor concentration, fit to a Sigmoidal 4 parameter equation is used to calculate IC50.
Target sequence in this assay (P11597 18-493 limits assumed): as above
As for `O[C@H](CN1c2ccccc2N(Cc2cccc(C(F)(F)F)c2)C[C@H]1c1ccccc1)C(F)(F)F` [Example 9, (R)-3-((R)-4-(3-trifluoromethylbenzyl)-2-phenyl-3,4-dihydroquinoxalin-1(2H)-yl)-1,1,1-trifluoropropan-2-ol], the IC50 was determined as 0.047 µM. Same read-out and setting: as for `O[C@H](CN1c2ccccc2N(Cc2cccc(OC(F)(F)F)c2)C[C@H]1c1ccccc1)C(F)(F)F` [Example 1, (R)-3-((R)-4-(3-trifluoromethoxy)-2-phenyl-3,4-dihydroquinoxalin-1(2H)-yl)-1,1,1-trifluoropropan-2-ol], the figure is 0.019 µM. The same measure, in the same setting: as for `O[C@H](CN1c2ccccc2N(Cc2cc(C(F)(F)F)cc(C(F)(F)F)c2)C[C@H]1c1ccccc1)C(F)(F)F` [Example 3], the figure is 0.074 µM; as for `O[C@H](CN1c2ccccc2N(Cc2cc(OC(F)(F)F)ccc2F)C[C@H]1c1ccccc1)C(F)(F)F` [Example 5, (R)-1,1,1-trifluoro-3-((R)-4-(2-fluoro-5-(trifluoromethoxy)benzyl)-2-phenyl-3,4-dihydroquinoxalin-1(2H)-yl)-propan-2-ol], 0.011 µM. Regarding `CCOc1cccc(CN2C[C@@H](c3ccccc3)N(C[C@@H](O)C(F)(F)F)c3ccccc32)c1` [Example 8, (R)-3-((R)-4-(3-ethoxybenzyl)-2-phenyl-3,4-dihydroquinoxalin-1(2H)-yl)-1,1,1-trifluoropropan-2-ol], the concentration for half-maximal inhibition (IC50) came out at 0.301 µM.

In the case of `O[C@@H](CN1c2ccccc2N(Cc2cccc(OC(F)(F)F)c2)C[C@H]1c1ccccc1)C(F)(F)F` [Example 2, (S)-3-((R)-4-(3-trifluoromethoxy)-2-phenyl-3,4-dihydro-quinoxalin-1(2H)-yl)-1,1,1-trifluoro-propan-2-ol], the IC50 was 1.35 µM.

For `O[C@H](CN1c2ccccc2N(Cc2cccc(F)c2)C[C@H]1c1ccccc1)C(F)(F)F` [Example 7, (R)-3-((R)-4-(3-fluorobenzyl)-2-phenyl-3,4-dihydroquinoxalin-1(2H)-yl)-1,1,1-trifluoropropan-2-ol], the IC50 came out at 0.11 µM. Turning to `O[C@H](CN1c2ccccc2N(Cc2cccc(OC(F)(F)F)c2)C[C@H]1c1ccccc1)C(F)(F)F` [Example 17, (R)-3-((R)-4-(3-trifluoromethoxy)-2-phenyl-3,4-dihydroquinoxalin-1(2H)-yl)-1,1,1-trifluoro-propan-2-ol], the IC50 was 0.034 µM.

In the case of `CCc1cc(CN2C[C@@H](c3ccccc3)N(C[C@@H](O)C(F)(F)F)c3ccccc32)ccc1Cl` [Example 6, (R)-3-((R)-4-(4-chloro-3-ethylbenzyl)-2-phenyl-3,4-dihydroquinoxalin-1(2H)-yl)-1,1,1-trifluoropropan-2-ol], the IC50 was determined as 0.03 µM. Same read-out and setting: as for `O[C@H](CN1c2ccccc2N(Cc2cccc(OC(F)(F)C(F)F)c2)C[C@H]1c1ccccc1)C(F)(F)F` [Example 4, (R)-1,1,1-trifluoro-3-((R)-2-phenyl-4-(3-(1,1,2,2-tetrafluoroethoxy)benzyl)-3,4-dihydroquinoxalin-1(2H)-yl)-propan-2-ol], the figure is 0.112 µM.
